Source: patent publication US9453026B2, “ACC inhibitors and uses thereof” (Gilead Apollo, Inc., priority 2011, dated 2016)

Biological target: ACC2 (Homo sapiens, UniProt O00763)
Experiment: In vitro ACC2 inhibition assay (ADP-Glo)
Type: biochemical
Details: read-out: ACC2
Procedure, shortened: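 Enzyme (human ACC1 or ACC2) and compound, serially diluted 1:3 over 11 points from a 600 uM DMSO stock, were preincubated 15 min before substrate addition.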

Sequence of ACC2 (O00763 whole entry, species assumed): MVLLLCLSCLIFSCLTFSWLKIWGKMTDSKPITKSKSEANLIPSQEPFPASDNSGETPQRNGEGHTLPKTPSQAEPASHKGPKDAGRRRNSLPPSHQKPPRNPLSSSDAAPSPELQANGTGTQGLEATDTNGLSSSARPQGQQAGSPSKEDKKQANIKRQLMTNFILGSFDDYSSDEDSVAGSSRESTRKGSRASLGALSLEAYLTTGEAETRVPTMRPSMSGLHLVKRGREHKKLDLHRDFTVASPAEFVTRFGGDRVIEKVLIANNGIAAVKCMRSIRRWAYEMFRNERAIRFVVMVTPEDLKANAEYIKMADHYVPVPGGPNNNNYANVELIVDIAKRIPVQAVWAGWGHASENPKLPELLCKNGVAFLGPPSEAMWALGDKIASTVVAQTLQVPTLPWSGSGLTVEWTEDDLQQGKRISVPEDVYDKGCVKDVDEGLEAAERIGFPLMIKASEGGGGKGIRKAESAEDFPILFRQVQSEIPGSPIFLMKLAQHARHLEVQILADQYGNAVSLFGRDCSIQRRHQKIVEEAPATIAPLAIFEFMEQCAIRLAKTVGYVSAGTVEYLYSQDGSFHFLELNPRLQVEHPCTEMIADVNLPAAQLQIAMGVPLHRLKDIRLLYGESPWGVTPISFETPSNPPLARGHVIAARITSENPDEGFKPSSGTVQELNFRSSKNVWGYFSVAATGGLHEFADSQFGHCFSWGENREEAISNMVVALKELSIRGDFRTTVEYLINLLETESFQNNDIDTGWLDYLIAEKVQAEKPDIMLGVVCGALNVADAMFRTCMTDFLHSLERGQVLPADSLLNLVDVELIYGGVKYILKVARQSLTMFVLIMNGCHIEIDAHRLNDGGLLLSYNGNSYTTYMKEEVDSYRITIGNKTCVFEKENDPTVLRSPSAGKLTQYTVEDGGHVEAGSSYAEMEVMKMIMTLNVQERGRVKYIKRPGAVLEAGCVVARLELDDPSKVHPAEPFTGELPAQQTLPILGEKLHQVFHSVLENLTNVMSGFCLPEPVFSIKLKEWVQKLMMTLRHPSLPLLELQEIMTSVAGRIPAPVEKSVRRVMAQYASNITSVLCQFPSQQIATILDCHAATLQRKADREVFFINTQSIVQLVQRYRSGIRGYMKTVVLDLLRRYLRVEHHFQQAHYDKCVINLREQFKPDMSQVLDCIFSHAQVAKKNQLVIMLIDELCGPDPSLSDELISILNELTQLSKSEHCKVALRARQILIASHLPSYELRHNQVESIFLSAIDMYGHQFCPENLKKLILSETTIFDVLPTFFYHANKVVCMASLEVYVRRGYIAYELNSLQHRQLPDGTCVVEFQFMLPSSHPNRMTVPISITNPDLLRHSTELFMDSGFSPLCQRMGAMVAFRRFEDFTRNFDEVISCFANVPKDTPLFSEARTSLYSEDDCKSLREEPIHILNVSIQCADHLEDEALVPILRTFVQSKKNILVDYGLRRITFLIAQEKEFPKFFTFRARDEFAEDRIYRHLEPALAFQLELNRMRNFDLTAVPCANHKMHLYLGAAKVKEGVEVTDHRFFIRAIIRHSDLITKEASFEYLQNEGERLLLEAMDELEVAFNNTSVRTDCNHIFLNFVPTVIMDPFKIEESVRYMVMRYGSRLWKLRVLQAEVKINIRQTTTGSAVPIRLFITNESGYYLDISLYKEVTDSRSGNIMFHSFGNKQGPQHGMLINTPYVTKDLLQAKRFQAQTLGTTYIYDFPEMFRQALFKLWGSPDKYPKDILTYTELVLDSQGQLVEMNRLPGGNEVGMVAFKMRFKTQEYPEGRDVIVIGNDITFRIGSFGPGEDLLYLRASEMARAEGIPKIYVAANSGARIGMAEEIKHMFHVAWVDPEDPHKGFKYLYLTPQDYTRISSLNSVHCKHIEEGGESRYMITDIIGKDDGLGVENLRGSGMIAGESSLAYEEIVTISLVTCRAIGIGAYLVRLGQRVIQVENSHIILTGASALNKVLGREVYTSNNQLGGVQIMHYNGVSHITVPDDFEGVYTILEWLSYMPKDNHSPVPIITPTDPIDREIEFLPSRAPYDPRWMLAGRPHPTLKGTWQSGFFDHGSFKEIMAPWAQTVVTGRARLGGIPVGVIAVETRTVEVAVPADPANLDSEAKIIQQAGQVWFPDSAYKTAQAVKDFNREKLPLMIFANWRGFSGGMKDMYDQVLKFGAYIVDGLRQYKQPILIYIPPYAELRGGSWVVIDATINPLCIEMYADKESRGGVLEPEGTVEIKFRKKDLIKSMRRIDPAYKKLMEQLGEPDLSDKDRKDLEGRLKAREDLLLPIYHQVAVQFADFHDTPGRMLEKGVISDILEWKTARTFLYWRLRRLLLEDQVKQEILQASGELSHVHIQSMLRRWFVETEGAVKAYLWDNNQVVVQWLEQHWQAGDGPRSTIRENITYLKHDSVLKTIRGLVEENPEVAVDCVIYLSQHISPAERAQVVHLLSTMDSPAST

SMILES | IC50 [µM]
CCOC(=O)c1sc2c(c1C)c(=O)n(C(C)(C)C(=O)O)c(=O)n2C[C@H](OC(C)C)c1ccc(I)cc1 [I-129, (R)-2-(6-(ethoxycarbonyl)-1-(2-(4-iodophenyl)-2-isopropoxyethyl)-5-methyl-2,4-dioxo-1,2-dihydrothieno[2,3-d]pyrimidin-3(4H)-yl)-2-methylpropanoic acid] | 5 to 20
Cc1c(C2CC2)sc2c1c(=O)n(C(C)(C)C(=O)O)c(=O)n2CCc1ccccc1 [I-132, 2-[6-cyclopropyl-5-methyl-2,4-dioxo-1-(2-phenylethyl)-1H,2H,3H,4H-thieno[2,3-d]pyrimidin-3-yl]-2-methylpropanoic acid] | 20 to 50
Cc1c(-c2ncco2)sc2c1c(=O)n(C(C)(C)C(=O)O)c(=O)n2C[C@H](OCc1ccccc1)c1ccccc1 [I-136, 2-[1-[(2R)-2-(benzyloxy)-2-phenylethyl]-5-methyl-6-(1,3-oxazol-2-yl)-2,4-dioxo-1H,2H,3H,4H-thieno[2,3-d]pyrimidin-3-yl]-2-methylpropanoic acid] | < 5
Cc1c(-c2ncco2)sc2c1c(=O)n(C(C)(C)C(=O)O)c(=O)n2C[C@@H](OCC(F)(F)F)c1ccccc1 [I-138, (S)-2-methyl-2-(5-methyl-6-(oxazol-2-yl)-2,4-dioxo-1-(2-phenyl-2-(2,2,2-trifluoroethoxy)ethyl)-1,2-dihydrothieno[2,3-d]pyrimidin-3(4H)-yl)propanoic acid] | 5 to 20
Cc1c(-c2nccs2)sc2c1c(=O)n(C(C)(C)C(=O)O)c(=O)n2C[C@H](OC(C)C)c1ccccc1 [I-141, 2-methyl-2-[5-methyl-2,4-dioxo-1-[(2R)-2-phenyl-2-(propan-2-yloxy)ethyl]-6-(1,3-thiazol-2-yl)-1H,2H,3H,4H-thieno[2,3-d]pyrimidin-3-yl]propanoic acid] | < 5
Cc1c(-c2ncco2)sc2c1c(=O)n(C(C)(C)C(=O)O)c(=O)n2C[C@@H](Oc1ccccc1)c1ccccc1 [I-144, 2-methyl-2-[5-methyl-6-(1,3-oxazol-2-yl)-2,4-dioxo-1-[(2S)-2-phenoxy-2-phenylethyl]-1H,2H,3H,4H-thieno[2,3-d]pyrimidin-3-yl]propanoic acid] | 5 to 20
Cc1c(-c2ncco2)sc2c1c(=O)n(C(C)(C)C(=O)O)c(=O)n2C[C@H](OC1CCC(C)(C)CC1)c1ccccc1 [I-148, 2-[1-[(2R)-2-[(4,4-dimethylcyclohexyl)oxy]-2-phenylethyl]-5-methyl-6-(1,3-oxazol-2-yl)-2,4-dioxo-1H,2H,3H,4H-thieno[2,3-d]pyrimidin-3-yl]-2-methylpropanoic acid] | < 5
Cc1c(-c2ncco2)sc2c1c(=O)n(C(C)(C)C(=O)O)c(=O)n2C[C@@H](Oc1ccc(F)cc1)c1ccccc1 [I-150, (S)-2-(1-(2-(4-fluorophenoxy)-2-phenylethyl)-5-methyl-6-(oxazol-2-yl)-2,4-dioxo-1,2-dihydrotheno[2,3-d]pyrimidin-3(4H)-yl)-2-methylpropanoic acid] | 5 to 20
Cc1c(-c2ncc(Cl)o2)sc2c1c(=O)n(C(C)(C)C(=O)O)c(=O)n2C[C@H](OC(C)C)c1ccccc1 [I-156, 2-[6-(5-chloro-1,3-oxazol-2-yl)-5-methyl-2,4-dioxo-1-[(2R)-2-phenyl-2-(propan-2-yloxy)ethyl]-1H,2H,3H,4H-thieno[2,3-d]pyrimidin-3-yl]-2-methylpropanoic acid] | < 5
Cc1c(-n2cncn2)sc2c1c(=O)n(C(C)(C)C(=O)O)c(=O)n2C[C@H](OC(C)C)c1ccccc1 [I-157, 2-methyl-2-[5-methyl-2,4-dioxo-1-[(2R)-2-phenyl-2-(propan-2-yloxy)ethyl]-6-(1H-1,2,4-triazol-1-yl)-1H,2H,3H,4H-thieno[2,3-d]pyrimidin-3-yl]propanoic acid] | 20 to 50
Cc1c(-c2ncco2)sc2c1c(=O)n(C(C)(C)C(=O)O)c(=O)n2C[C@@H](Oc1ccc(-n2ccnc2)cc1)c1ccccc1 [I-161, 2-[1-[(2S)-2-[4-(1H-Imidazol-1-yl)phenoxy]-2-phenylethyl]-5-methyl-6-(1,3-oxazol-2-yl)-2,4-dioxo-1H,2H,3H,4H-thieno[2,3-d]pyrimidin-3-yl]-2-methylpropanoic acid] | < 5
Cc1c(-c2ncco2)sc2c1c(=O)n(C(C)(C)C(=O)O)c(=O)n2C[C@H](O[C@H]1CC[C@H](N)CC1)c1ccccc1 [I-166, 2-(1-((R)-2-(((1r,4R)-4-aminocyclohexyl)oxy)-2-phenylethyl)-5-methyl-6-(oxazol-2-yl)-2,4-dioxo-1,2-dihydrothieno[2,3-d]pyrimidin-3(4H)-yl)-2-methylpropanoic acid] | < 1
Cc1c(-c2ncco2)sc2c1c(=O)n(C(C)(C)C(=O)O)c(=O)n2C[C@H](O[C@H]1CC[C@@H](N)CC1)c1ccccc1 [I-167, 2-(1-((R)-2-(((1s,4S)-4-aminocyclohexyl)oxy)-2-phenylethyl)-5-methyl-6-(oxazol-2-yl)-2,4-dioxo-1,2-dihydrothieno[2,3-d]pyrimidin-3(4H)-yl)-2-methylpropanoic acid] | < 5
Cc1c(-c2ncco2)sc2c1c(=O)n(C(C)(C)C(=O)O)c(=O)n2C[C@H](O[C@H]1CC[C@@](C)(O)CC1)c1ccccc1 [I-168, 2-(1-((R)-2-(((1s,4S)-4-hydroxy-4-methylcyclohexyl)oxy)-2-phenylethyl)-5-methyl-6-(oxazol-2-yl)-2,4-doxo-1,2-dihydrothieno[2,3-d]pyrimidin-3(4H)-yl)-2-methylpropanoic acid] | < 1
Cc1c(-c2ncco2)sc2c1c(=O)n(C(C)(C)C(=O)O)c(=O)n2C[C@H](OC[C@H](C)CO)c1ccccc1 [I-170, 2-(1-((R)-2-((R)-3-hydroxy-2-methylpropoxy)-2-phenylethyl)-5-methyl-6-(oxazol-2-yl)-2,4-dioxo-1,2-dihydrotheno[2,3-d]pyrimidin-3(4H)-yl)-2-methylpropanoic acid] | < 1
Cc1c(-c2ncco2)sc2c1c(=O)n(C(C)(C)C(=O)O)c(=O)n2C[C@H](OC[C@@H](C)CO)c1ccccc1 [I-171, 2-(1-((R)-2-((S)-3-hydroxy-2-methylpropoxy)-2-phenylethyl)-5-methyl-6-(oxazol-2-yl)-2,4-dioxo-1,2-dihydrothieno[2,3-d]pyrimidin-3(4H)-yl)-2-methylpropanoic acid] | < 1
Cc1c(-c2ncco2)sc2c1c(=O)n(C(C)(C)C(=O)O)c(=O)n2C[C@H](O[C@H]1CCC[C@H](O)C1)c1ccccc1 [I-172, 2-(1-((R)-2-(((1S,3S)-3-hydroxycyclohexyl)oxy)-2-phenylethyl)-5-methyl-6-(oxazol-2-yl)-2,4-dioxo-1,2-dihydrothieno[2,3-d]pyrimidin-3(4H)-yl)-2-methylpropanoic acid] | < 1

The next lines start with the values.

IC50 [µM] | SMILES
< 1 | Cc1c(-c2ncco2)sc2c1c(=O)n(C(C)(C)C(=O)O)c(=O)n2C[C@H](OCC(F)(F)F)c1ccccc1 [I-137, 2-methyl-2-[5-methyl-6-(1,3-oxazol-2-yl)-2,4-dioxo-1-[2-phenyl-2-(2,2,2-trifluoroethoxy)ethyl]-1H,2H,3H,4H-thieno[2,3-d]pyrimidin-3-yl]propanoic acid]
< 1 | Cc1c(-c2ncco2)sc2c1c(=O)n(CC#N)c(=O)n2C[C@H](OC(C)C)c1ccccc1 [I-142, 2-(1-((R)-2-Isopropoxy-2-phenylethyl)-5-methyl-6-(oxazol-2-yl)-2,4-dioxo-1,2-dihydrothieno[2,3-d]pyrimidin-3(4H)-yl)acetonitrile]
< 1 | Cc1c(-c2ncco2)sc2c1c(=O)n(C(C)(C)C(=O)O)c(=O)n2C[C@H](OCC1CCCO1)c1ccccc1 (stereo partly drawn) [I-146, 2-methyl-2-[5-methyl-6-(1,3-oxazol-2-yl)-2,4-dioxo-1-[(2R)-2-(oxolan-2-ylmethoxy)-2-phenylethyl]-1H,2H,3H,4H-thieno[2,3-d]pyrimidin-3-yl]propanoic acid]
< 1 | Cc1c(-c2ncco2)sc2c1c(=O)n(C(C)(C)C(=O)O)c(=O)n2C[C@H](Oc1ccc(F)cc1)c1ccccc1 [I-149, (R)-2-(1-(2-(4-fluorophenoxy)-2-phenylethyl)-5-methyl-6-(oxazol-2-yl)-2,4-dioxo-1,2-dihydrothieno[2,3-d]pyrimidin-3(4H)-yl)-2-methylpropanoic acid]
< 1 | CCCc1ccccc1CCn1c(=O)n(C(C)(C)C(N)=O)c(=O)c2c(C)c(-c3ncco3)sc21 [I-151, 2-methyl-2-[5-methyl-6-(1,3-oxazol-2-yl)-2,4-dioxo-1-[2-(2-propylphenyl)ethyl]-1H,2H,3H,4H-thieno[2,3-d]pyrimidin-3-yl]propanamide]
< 1 | Cc1c(-c2ncco2)sc2c1c(=O)n(C(C)(C)C(=O)O)c(=O)n2C[C@H](O[C@H]1CCCC[C@@H]1C)c1ccccc1 [I-152, 2-methyl-2-[5-methyl-1-[(2R)-2-[[(1S,2S)-2-methylcyclohexyl]oxy]-2-phenylethyl]-6-(1,3-oxazol-2-yl)-2,4-dioxo-1H,2H,3H,4H-thieno[2,3-d]pyrimidin-3-yl]propanoic acid]
< 1 | Cc1c(-c2ncco2)sc2c1c(=O)n(Cc1nn[nH]n1)c(=O)n2C[C@H](OC(C)C)c1ccccc1 [I-153, 5-methyl-6-(1,3-oxazol-2-yl)-1-[(2R)-2-phenyl-2-(propan-2-yloxy)ethyl]-3-(1H-1,2,3,4-tetrazol-5-ylmethyl)-1H,2H,3H,4H-thieno[2,3-d]pyrimidine-2,4-dione]
< 1 | Cc1c(-c2ncco2)sc2c1c(=O)n(C(C)(C)C#N)c(=O)n2C[C@H](OC(C)C)c1ccccc1 [I-154, 2-methyl-2-[5-methyl-6-(1,3-oxazol-2-yl)-2,4-dioxo-1-[(2R)-2-phenyl-2-(propan-2-yloxy)ethyl]-1H,2H,3H,4H-thieno[2,3-d]pyrimidin-3-yl]propanenitrile]
< 1 | Cc1c(-c2ncco2)sc2c1c(=O)n(C(C)(C)C(=O)O)c(=O)n2C[C@H](OC1CCC(F)(F)CC1)c1ccccc1 [I-155, 2-[1-[(2R)-2-[(4,4-difluorocyclohexyl)oxy]-2-phenylethyl]-5-methyl-6-(1,3-oxazol-2-yl)-2,4-dioxo-1H,2H,3H,4H-thieno[2,3-d]pyrimidin-3-yl]-2-methylpropanoic acid]
< 0.1 | Cc1c(-c2ncco2)sc2c1c(=O)n(C(C)(C)C(=O)O)c(=O)n2C[C@H](OCCO)c1ccccc1 [I-169, 2-[1-[(2R)-2-(2-hydroxyethoxy)-2-phenylethyl]-5-methyl-6-(1,3-oxazol-2-yl)-2,4-dioxo-1H,2H,3H,4H-thieno[2,3-d]pyrimidin-3-yl]-2-methylpropanoic acid]
